Structures can show the parent of a compound that is named as a salt.
Tests used:
[1] = tested on: patients with chronic tension-type headache; test: Open labelled pilot study of prophylactic Gabapentin in chronic tension-type headache; assay type: in vivo, human
Source text: Three patients with a diagnosis of chronic tension-type headache according to the International Headache Society (Headache Classification Committee 1988) were recruited from the outpatient headache clinic at Glostrup Hospital. The patients were males with a mean age of 42 years (range 35-49). The mean life time duration of chronic tension-type headache was 16 years (range 7-21). […] Exclusion criteria were: daily major medication (including prophylactic headache therapy); abuse of analgesics or alcohol; serious somatic or psychiatric diseases including depression.
Using an open labelled design, patients fulfilled a diagnostic headache diary during at least 4 weeks run-in period to ensure the diagnostic criteria. Thereafter, the patients received Gabapentin (Neurontin®) tablets, initially 300 mg (one tablet) per day on day one, increasing with 300 mg (1 tablet) per day to 900 mg (3 tablets) on day 3. The treatment period lasted 4 weeks, and during this period patients were asked to continue with headache diaries, and record headache intensity, frequency, duration, any medication taken and any possible adverse events. At a follow up visit at day 29-32, diaries were collected and any adverse events and evaluation of the treatment were recorded. Due to the low number of patients, no statistical analysis were done. The primary efficacy parameters were headache intensity, frequency and duration, and the mean values from the run-in period were compared to those obtained during the treatment period.

GABA A = conditions: binding studies; cited from earlier work
[2] = tested on: alpha-2-subunit of a calcium channel; conditions: Gee et al. 1996; cited from earlier work
tension-type headache = conditions: Brennum et al. 1992, 1996; cited from earlier work
migraine = conditions: in vivo; cited from earlier work
[3] = tested on: patients with chronic tension-type headache; test: Open labelled pilot study of prophylactic Dextromethorphan in chronic tension-type headache; assay type: in vivo, human
Source text: Five patients with a diagnosis of chronic tension-type headache according to the International Headache Society (Headache Classification Committee 1988) were recruited from the outpatient headache clinic at Glostrup Hospital. There were 2 males and 3 females, and the mean age was 45.4 years (range 39-48). The mean life time duration of chronic tension-type headache was 12.2 years (range 4-25). One patient had coexisting but infrequent migraine. Exclusion criteria were: daily major medication (including prophylactic headache therapy); abuse of analgesics or alcohol; serious somatic or psychiatric diseases including depression.
Using an open labelled design, patients fulfilled a diagnostic headache diary during at least 4 weeks run-in period to ensure the diagnostic criteria. Thereafter, the patients received Dextromethorphan (Dexofan®) tablets at 30 mg each, three times per day. The treatment period lasted 4 weeks, and during this period patients were asked to continue with headache diaries, and record headache intensity, frequency, duration, any medication taken and any possible adverse events. At a follow up visit at day 29-32, diaries were collected and possible adverse events and evaluation of the treatment were recorded. Due to the restricted number of patients, no statistical analysis were done. The efficacy parameters were headache intensity, frequency and duration, and intake of simple analgesics. Mean values from the run-in period were compared to those obtained during the treatment period.

[4] = tested on: patients with chronic tension-type headache; test: Double-blind crossover study of intravenous L-NMMA versus placebo in chronic tension-type headache; assay type: in vivo, human
Experimental: Five patients with coexisting infrequent migraine (≤ one day/month) were accepted. […] At screening, a full physical and neurological examination, including 12-lead ECG were carried out. Blood samples for routine haematological and biochemical testing, and urine sample for urinanalysis were taken. The patients were not allowed to take analgesics 12 hours prior to the treatment. […] All patients gave written informed consent to participate in the study, which was approved by the local ethics committee and conducted in accordance with the Declaration of Helsinki.
Using a double-blind crossover design, the patients were randomised to receive 6 mg/kg L-NMMA (Clinalfa, Switzerland) or placebo (isotone glucose) on two days with a typical episode of tension-type headache separated by at least one week. Randomisation (Med.Stat) and drug preparation were performed by staff not involved in the study. The medication was given over 15 minutes into an antecubital vein (Braun Perfusor). The following parameters were measured at baseline and 15, 30, 60 and 120 minutes post administration: headache intensity on a 100-mm Visual Analog Scale (VAS) (0 - no headache and 100 - worst imaginable headache) and on a Verbal Rating Scale (VRS) from 0-10 (0 - no headache; 5 - moderate headache; 10 - worst imaginable headache). Blood pressure and pulse rate were measured 5 minutes prior to administration of treatment and at 5, 10, 15, 20, 25, 30, 60, 90 and 120 minutes post administration. Twelve-lead ECG was monitored continuously. Any adverse events were recorded. Patients with unrelieved headache at 120 minutes post treatment were allowed to take rescue medication. All patients were asked to record details of the following on a diary card at 4, 8, 12, 16, 20 and 24 hours post administration: headache intensity on VRS, any medication taken and adverse events. Between 4-7 days after each treatment, the patients returned to the clinic, the diary cards were collected and any adverse events were noted.
The secondary endpoints were reduction of pain intensity at 30, 60, 90 and 120 minutes post dosing on VAS and VRS compared to pre-treatment pain score within each treatment. Comparison of pain intensity on VAS, blood pressure and pulse rate over time between treatments were performed with ANOVA. Paired-Samples T Test was used to compare pre-treatment pain score on VAS with pain score at 30, 60, 90, 120 minutes post dosing within each treatment. […] These sums of differences for each treatment were compared by Wilcoxon Signed Rank test. Five percent was accepted as level of significance.

[5] = 0-10 VAS intensity scale, mean, before treatment
[6] = 100-mm VAS, 6 mg/kg L-NMMA i.v. over 15 minutes, mean (SD), p < 0.05 vs pretreatment

NCC1(CC(=O)O)CCCCC1 [Gabapentin]
Headache intensity during active treatment ([1]; 0-10 VAS intensity scale, mean, 4 weeks): 3.6 | Headache intensity during run-in period [1, 5]: 5.5 | Frequency of headache during run-in period ([1]; before treatment): 23.5 days per 4 weeks | Mean daily intake of analgesics, run-in ([1]; before treatment): 1.1 dose per day | Individual response, one patient ([1]; complete relief of the headache after 2 days treatment): excellent effect | Side effects in the third patient ([1]; disappeared completely after cessation of the drug intake): sedation, vertigo and slight nausea | Frequency of headache during the active treatment period ([1]; in vivo): 13 days per 4 weeks | Mean daily intake of analgesics, active treatment ([1]; in vivo): 0.3 dose per day | Individual response, third patient ([1]; on any of efficacy parameters): no significant effect | Individual response, another patient ([1]; on headache intensity and frequency): moderate effect | Decrease of headache intensity ([1]; treatment period (4 weeks, up to 900 mg per day) vs run-in, 3 patients): 35% | Decrease of frequency of headache ([1]; treatment period vs run-in): 45% | Decrease of mean daily intake of analgesics ([1]; treatment period vs run-in): 72% | Reduction of duration of the individual headache episode ([1]; treatment period vs run-in): 8% | Affinity for GABA A (GABA A): fail to show affinity | Binding affinity to the alpha-2-subunit of a calcium channel [2]: showed binding affinity

CNS(=O)(=O)Cc1ccc2[nH]cc(CCN(C)C)c2c1 [sumatriptan]
Efficacy in tension-type headache (tension-type headache): not effective to a clinically relevant extent | Efficacy in migraine (migraine): highly effective

COc1ccc2c(c1)[C@]13CCCC[C@@H]1[C@H](C2)N(C)CC3 [Dextromethorphan]
Intensity of headache during active treatment ([3]; 0-10 VAS intensity scale, mean): 3.6 | Intensity of headache during the run-in period [3, 5]: 4.4 | Frequency of headache during run-in ([3]; before treatment): 28 days per 4 weeks period | Mean intake of analgesics during run-in period ([3]; before treatment): 1.8 dose per day | Patients reporting a marked effect ([3]; considerable relief of headache intensity and duration within very few days, of 5 patients): Two | Frequency of headache during active treatment ([3]; in vivo): 27 days per 4 weeks period | Mean intake of analgesics during active treatment ([3]; in vivo): 0.5 dose per day | Patients reporting no effect at all ([3]; of 5 patients): two | Patients reporting no side effects ([3]; of 5 patients): Four | Patients with a slight relief of headache intensity ([3]; of 5 patients): one | Patients with marked side effects with sedation ([3]; the patient with best clinical response, diminished after dose reduction to 40 mg per day): one | Reduction of intensity of headache ([3]; treatment period (4 weeks, 30 mg three times per day) vs run-in, 5 patients): 18% | Decrease of frequency of headache ([3]; treatment period vs run-in): 4% | Decrease of intake of analgesics ([3]; treatment period vs run-in): 72% | Reduction of duration of the individual headache episode ([3]; treatment period vs run-in): 11%

CNC(=N)NCCC[C@H](N)C(=O)O [L-NMMA, L- N^G methyl arginine hydrochloride]
Pain scores on VAS, 30 minutes post dosing [4, 6]: 38 ± 18 | Pain scores on VAS, 60 minutes post dosing [4, 6]: 35 ± 18 | Pain scores on VAS, 90 minutes post dosing [4, 6]: 34 ± 21 | Pain scores on VAS, 120 minutes post dosing [4, 6]: 33 ± 21 | Pain scores on VAS before treatment (Baseline) ([4]; 100-mm VAS, pre-treatment value on the L-NMMA day, 16 patients, mean (SD)): 49 ± 16 | Pain intensity on VRS compared with placebo ([4]; Verbal Rating Scale 0-10, sum of differences, Wilcoxon, p=0.02): significantly lower after treatment with L-NMMA than after treatment with placebo | Withdrawal from the study because of side effects ([4]; in vivo): No patients withdrew from the study because of side effects | Maximum decrease in pulse rate ([4]; occurred 10 minutes post dosing, 6 mg/kg i.v.): 16 ± 2% | Maximum increase in mean arterial blood pressure (MAP) ([4]; occurred 15 minutes post dosing, 6 mg/kg i.v.): 12 ± 2% | Patients reporting subjective symptoms in relation to the infusion ([4]; of 16 patients): Seven | Subjective symptom: a feeling of tingling in arm (number of patients) ([4]; of 16 patients): 1 | Subjective symptom: drowsiness (number of patients) ([4]; of 16 patients): 1 | Subjective symptom: dryness of the mouth (number of patients) ([4]; of 16 patients): 3 | Subjective symptom: exhaustion (number of patients) ([4]; of 16 patients): 1 | Subjective symptom: nausea (number of patients) ([4]; of 16 patients): 1 | Subjective symptom: tiredness (number of patients) ([4]; of 16 patients): 2 | Patients who used simple analgesics as rescue medication ([4]; of 16 patients, 7 on placebo): Three | Reduction of pain intensity (VAS) over time compared with placebo ([4]; primary endpoint, ANOVA, p=0.007, 16 patients, hydrochloride): reduced pain intensity (VAS) over time significantly more than placebo
